Data reported in article PMC7570910, “8-Hydroxyquinoline Glycoconjugates Containing Sulfur at the Sugar Anomeric Position—Synthesis and Preliminary Evaluation of Their Cytotoxicity” (Molecules, 2020).

How the values were obtained:
[1] = system: MCF-7 cells; test: MTT cytotoxicity assay, MCF-7; assay type: cell-based; settings: Homo sapiens, MCF7, incubation time 72 h, mean ± SD (n = 3)
Experimental: In vitro cytotoxicity studies of the obtained building blocks and glycoconjugates were carried out on cell lines characterized by the high expression of GLUT transporters and the strongly changed glucose metabolism (strong Warburg effect). […] Cytotoxicity was evaluated using the MTT assay.
The human cell line MCF-7 was obtained from collections at the Maria Sklodowska-Curie Memorial Cancer Center and Institute of Oncology, branch in Gliwice, Poland. […] The culture media were purchased from EuroClone and HyClone. Fetal bovine serum (FBS) was delivered by EURx, Poland, and Antibiotic Antimycotic Solution (100×) by Sigma-Aldrich, Germany. The cells were cultured under standard conditions at 37 °C in a humidified atmosphere at 5% CO2.
The viability of the cells was determined using an MTT (3-[4,5–dimethylthiazol-2-yl]-2,5-diphenyltetrazolium bromide) test (Sigma-Aldrich). Stock solutions of tested compounds were prepared in DMSO and diluted with the appropriate volumes of the growth medium directly before the experiment. […] The cell cultures were incubated for 24 h at 37 °C in a humidified atmosphere of 5% CO2. Then, the culture medium was removed, replaced with the solution of the tested compounds in medium with varying concentrations, and incubated for further 24 h or 72 h. After that, the medium was removed, and the MTT solution (50 µL, 0.5 mg/mL in PBS) was added. After 3 h of incubation, the MTT solution was removed, and the precipitated formazan was dissolved in DMSO. Finally, the absorbance at the 570 nm wavelength was measured spectrophotometrically with the plate reader. The experiment was conducted in at least three independent iterations with four technical repetitions. The IC50 values were calculated using CalcuSyn software (version 2.0, Biosoft, Cambridge, UK).

[2] = system: HCT-116 cells; test: MTT cytotoxicity assay, HCT-116; assay type: cell-based; settings: Homo sapiens, incubation time 24 h, mean ± SD (n = 3)
[3] = target: T1, β-galactosidase from Aspergillus oryzae (Aspergillus oryzae, UniProt Q2UCU3); test: Glycoconjugate stability under the action of β-galactosidase (hydrolysis followed by TLC); assay type: in vitro ADME; settings: 0.089 unit enzyme, 5 mM substrate, phosphate-citrate buffer pH 4.5, 30 °C, TLC at 10 min to 24 h
T1 construct: purchased Sigma-Aldrich G5160
Experimental: As part of the research, the effect of introducing a sulfur atom into the anomeric position of sugar was assessed. […] This was particularly evident for the 8-HQ derivatives 51 and 52, for which the cytotoxic activity was about twice as high as that of their structural counterparts with an anomeric oxygen atom (Figure 3). Unfortunately, an increase in cytotoxicity for glycoconjugates containing anomeric sulfur was observed, both to neoplastic cells and to healthy cells. […] In order to verify this assumption, two galactoconjugates 56 and 64 (being the deprotected counterparts of galactoconjugates 52 and 60) and their two analogs with anomeric oxygen were chosen and subjected to hydrolysis reactions using β-galactosidase from Aspergillus oryzae.
8-Hydroxyquinoline Glycoconjugates Containing
Sulfur at the Sugar Anomeric Position - Synthesis and Preliminary Evaluation of Their Cytotoxicity […]
The following reagents were pipetted into a test tube: 0.4 mL of 20 mM Phosphate-Citrate Buffer (C) and 0.5 mL of the appropriate 10 mM Substrate Solution ( D1-D4), which then thoroughly mixed and equilibrated to 30 °C with a thermoblock. […] The progress of the reactions was monitored by thin-layer chromatography (TLC) in a CHCl3:CH3OH (5:1) eluents system. […]

T1 sequence (Q2UCU3 19-1005): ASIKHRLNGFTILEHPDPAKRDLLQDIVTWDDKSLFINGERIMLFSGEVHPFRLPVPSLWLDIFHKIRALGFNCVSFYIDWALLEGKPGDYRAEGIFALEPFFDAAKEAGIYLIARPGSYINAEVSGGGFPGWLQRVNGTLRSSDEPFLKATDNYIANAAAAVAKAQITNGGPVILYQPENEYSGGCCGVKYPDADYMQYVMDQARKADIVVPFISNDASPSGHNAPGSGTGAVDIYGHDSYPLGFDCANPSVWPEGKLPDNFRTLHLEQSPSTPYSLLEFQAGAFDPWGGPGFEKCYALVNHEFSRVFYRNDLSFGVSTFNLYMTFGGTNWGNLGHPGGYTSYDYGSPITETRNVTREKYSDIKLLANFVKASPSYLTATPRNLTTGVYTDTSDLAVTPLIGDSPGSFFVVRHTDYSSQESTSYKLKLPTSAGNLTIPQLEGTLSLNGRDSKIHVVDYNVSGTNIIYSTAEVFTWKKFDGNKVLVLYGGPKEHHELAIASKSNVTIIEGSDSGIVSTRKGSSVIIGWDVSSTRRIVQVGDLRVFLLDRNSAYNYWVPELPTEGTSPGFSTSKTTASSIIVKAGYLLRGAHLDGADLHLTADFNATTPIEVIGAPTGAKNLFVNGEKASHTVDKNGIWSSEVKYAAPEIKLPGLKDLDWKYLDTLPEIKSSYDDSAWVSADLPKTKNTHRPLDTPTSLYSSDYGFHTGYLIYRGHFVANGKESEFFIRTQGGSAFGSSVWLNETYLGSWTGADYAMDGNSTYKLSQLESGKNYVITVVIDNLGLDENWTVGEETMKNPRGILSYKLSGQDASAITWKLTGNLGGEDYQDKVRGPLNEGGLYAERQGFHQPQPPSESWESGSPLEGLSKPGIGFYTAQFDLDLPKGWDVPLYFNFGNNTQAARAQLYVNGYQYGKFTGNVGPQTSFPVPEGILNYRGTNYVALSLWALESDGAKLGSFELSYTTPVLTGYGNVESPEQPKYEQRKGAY

OC[C@H]1O[C@@H](SCc2cn(CCCOc3cccc4cccnc34)nn2)[C@H](O)[C@@H](O)[C@H]1O [Compound 64]
IC50 [1]: > 800 µM | IC50 [2]: > 800 µM | Hydrolysis in the presence of β-galactosidase [3]: did not undergo hydrolysis
